“And” between values parts separate entries of the source, which are not always exact repeats. Identical values can stand only once.
Key:
Details in all cases: incubation time: 72 h
[1] = test system: BT-549; test: normalised viability (% of control), CellTiter-Blue; higher = more viable cells (about 100 = DMSO control)
Outline: (§1)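 Plates were quality-checked by Z'-factor and normalised to vehicle (100) and a positive kill control (0). The underlying assay incubated breast cancer cell lines for 72 h on 384-well plates with compound, then added 2.5 µl CellTiter-Blue for 2 h at 37 °C and read at 560/590 nm. The value is normalised viability at a single listed concentration of the series.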

[2] = test system: CAL-120; test: as above
Outline: as §1

[3] = test system: CAL-148; test: as above
Outline: as §1

[4] = test system: MDA-MB-231; test: as above
Outline: as §1

[5] = test system: MDA-MB-453; test: as above
Outline: as §1

[6] = test system: MDA-MB-468; test: as above
Outline: as §1

[7] = test system: SK-BR-3; test: as above
Outline: as §1

[8] = test system: BT-474; test: drug sensitivity score (DSS), CellTiter-Blue viability (DSS (AUC-based score)); higher = stronger viability inhibition; extreme values may be limits of the assay
Experimental: (§2)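 DSRT with the CellTiter-Blue (resazurin reduction) viability readout, fluorescence 560/590 nm, 72 h incubation. Plates were normalised to DMSO and benzethonium chloride controls. DSS is computed from the area under the fitted dose-response curve (5 or 9 concentrations).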

[9] = test system: BT-549; test: as above
Experimental: as §2

[10] = test system: CAL-120; test: as above
Experimental: as §2

[11] = test system: CAL-148; test: as above
Experimental: as §2

[12] = test system: CAL-51; test: as above
Experimental: as §2

[13] = test system: CAL-85-1; test: as above
Experimental: as §2

[14] = test system: DU-4475; test: as above
Experimental: as §2

[15] = test system: HCC1143; test: as above
Experimental: as §2

[16] = test system: HCC1599; test: as above
Experimental: as §2

[17] = test system: HCC1937; test: as above
Experimental: as §2

[18] = test system: HDQ-P1; test: as above
Experimental: as §2

[19] = test system: Hs578T; test: as above
Experimental: as §2

[20] = test system: MDA-MB-231; test: as above
Experimental: as §2

[21] = test system: MDA-MB-436; test: as above
Experimental: as §2

[22] = test system: MDA-MB-453; test: as above
Experimental: as §2

[23] = test system: MDA-MB-468; test: as above
Experimental: as §2

[24] = test system: MFM-223; test: as above
Experimental: as §2

[25] = test system: SK-BR-3; test: as above
Experimental: as §2

Row | SMILES | normalised viability ([1]; 1000 nM) | normalised viability ([2]; 1000 nM) | normalised viability ([3]; 3 nM) | normalised viability ([4]; 1000 nM) | normalised viability ([5]; 3 nM) | normalised viability ([6]; 1000 nM) | normalised viability ([7]; 1000 nM) | drug sensitivity score [8] | drug sensitivity score [10] | drug sensitivity score [11] | drug sensitivity score [12] | drug sensitivity score [14] | drug sensitivity score [15] | drug sensitivity score [16] | drug sensitivity score [17] | drug sensitivity score [19] | drug sensitivity score [20] | drug sensitivity score [21] | drug sensitivity score [22] | drug sensitivity score [23] | further results
1 | Nc1cccc2c1CN(C1CCC(=O)NC1=O)C2=O (configuration not stated) [Lenalidomide] | 94.5% and 95.7% | 80.2% and 81.1% | 78.6% and 91.8% | 79.1% and 103% | 107% and 106% | 105% and 99.7% | 94.7% and 95.1% | 0 | 0 | 0 | 0 | 0 | 0 | 0 | 0 | 0 | 0 | 0 | 0 | 0 | normalised viability ([1]; 10 nM): 94.5% and 88.9%; normalised viability ([1]; 10000 nM): 89.3% and 101%; normalised viability ([2]; 10 nM): 76% and 81.3%; normalised viability ([2]; 10000 nM): 84.4% and 80.2%; normalised viability ([3]; 30 nM): 86% and 94.3%; normalised viability ([3]; 100 nM): 86.9% and 89.8%; normalised viability ([4]; 10 nM): 89% and 86.3%; normalised viability ([4]; 10000 nM): 92.3% and 103%; normalised viability ([5]; 30 nM): 89.3% and 94.9%; normalised viability ([5]; 100 nM): 96.6% and 103%; normalised viability ([6]; 10 nM): 103% and 111%; normalised viability ([6]; 10000 nM): 93.5% and 106%; normalised viability ([7]; 10 nM): 104% and 93.7%; normalised viability ([7]; 10000 nM): 86.8% and 101%; drug sensitivity score [9]: 0; drug sensitivity score [13]: 0; drug sensitivity score [18]: 0; drug sensitivity score [24]: 0; drug sensitivity score [25]: 0
2 | C[C@]12O[C@H](C[C@]1(O)CO)n1c3ccccc3c3c4c(c5c6ccccc6n2c5c31)CNC4=O [Lestaurtinib] | 41.8% | 47.5% | 98.6% | 62.6% | 98.4% | 51% | 37.2% | 0 | 7.43 | 0 | 2.4 | 8.26 | 3.46 | 2.58 | 7.15 | 0 | 0 | 3.43 | 6.19 | 0 | normalised viability ([1]; 1 nM): 88.3%; normalised viability ([1]; 100 nM): 101%; normalised viability ([2]; 1 nM): 108%; normalised viability ([2]; 100 nM): 60.7%; normalised viability ([3]; 0.3 nM): 96.8%; normalised viability ([3]; 10 nM): 98.3%; normalised viability ([4]; 1 nM): 112%; normalised viability ([4]; 100 nM): 104%; normalised viability ([5]; 0.3 nM): 126%; normalised viability ([5]; 10 nM): 104%; normalised viability ([6]; 1 nM): 107%; normalised viability ([6]; 100 nM): 106%; normalised viability ([7]; 1 nM): 108%; normalised viability ([7]; 100 nM): 102%; drug sensitivity score [9]: 1.24; drug sensitivity score [13]: 3.82; drug sensitivity score [18]: 0; drug sensitivity score [24]: 5.87; drug sensitivity score [25]: 1.47
3 | O=C1c2c(O)ccc(O)c2C(=O)c2c(NCCNCCO)ccc(NCCNCCO)c21 [Mitoxantrone] | 35.4% | 17.3% | 91.5% | 17.4% | 87.1% | 37.4% | 14.8% | 6.48 | 9.16 | 17.4 | 17.6 | 22.7 | 6.5 | 4.36 | 23.1 | 4.05 | 11.8 | 3.16 | 4.9 | 9.75 | normalised viability ([1]; 1 nM): 82.4%; normalised viability ([1]; 100 nM): 69%; normalised viability ([2]; 1 nM): 73.8%; normalised viability ([2]; 100 nM): 44.6%; normalised viability ([3]; 0.3 nM): 91.2%; normalised viability ([3]; 10 nM): 57.9%; normalised viability ([4]; 1 nM): 82%; normalised viability ([4]; 100 nM): 44.2%; normalised viability ([5]; 0.3 nM): 98.7%; normalised viability ([5]; 10 nM): 74%; normalised viability ([6]; 1 nM): 97.1%; normalised viability ([6]; 100 nM): 57.3%; normalised viability ([7]; 1 nM): 84.2%; normalised viability ([7]; 100 nM): 34.6%; drug sensitivity score [9]: 4.76; drug sensitivity score [13]: 5.25; drug sensitivity score [18]: 8.81; drug sensitivity score [24]: 2.58; drug sensitivity score [25]: 15.3
4 | CNC(=O)c1cc(Oc2ccc(NC(=O)Nc3ccc(Cl)c(C(F)(F)F)c3)cc2)ccn1 [Sorafenib] | 94.5% and 80.4% | 96.5% and 89% | 99.3% and 91.5% | 84.8% and 63.9% | 97.2% and 99.1% | 102% and 112% | 110% and 108% | 0 | 0 | 0 | 0 | 0 | 0 | 0 | 0 | 0 | 0 | 0 | 0 | 0 | normalised viability ([1]; 1 nM): 83.7% and 97.1%; normalised viability ([1]; 100 nM): 99.5% and 82.8%; normalised viability ([2]; 1 nM): 106% and 91.3%; normalised viability ([2]; 100 nM): 101% and 90.5%; normalised viability ([3]; 0.3 nM): 101% and 88%; normalised viability ([3]; 10 nM): 102% and 87.5%; normalised viability ([4]; 1 nM): 103% and 90.2%; normalised viability ([4]; 100 nM): 88.7% and 96.2%; normalised viability ([5]; 0.3 nM): 122% and 105%; normalised viability ([5]; 10 nM): 96.8% and 102%; normalised viability ([6]; 1 nM): 115% and 93.2%; normalised viability ([7]; 1 nM): 112% and 89.3%; normalised viability ([7]; 100 nM): 107% and 102%; drug sensitivity score [18]: 0; drug sensitivity score [25]: 0
5 | CCN(CC)CCNC(=O)c1c(C)[nH]c(/C=C2\C(=O)Nc3ccc(F)cc32)c1C [Sunitinib] | 89.9% and 111% | 88.6% and 104% | 90.1% and 97.4% | 114% and 112% | 90.5% and 94.7% | 100% | 90.2% and 90.4% | 0 | 0 | 0 | 0 | 0 | 0 | 0 | 0 | 0 | 0 | 0 | 0 | 0 | normalised viability ([1]; 1 nM): 90.8% and 103%; normalised viability ([1]; 100 nM): 92.6% and 88.2%; normalised viability ([3]; 0.3 nM): 92.3% and 103%; normalised viability ([3]; 10 nM): 89.6% and 111%; normalised viability ([4]; 1 nM): 90.4% and 86.8%; normalised viability ([4]; 100 nM): 89% and 90.3%; normalised viability ([5]; 10 nM): 95.2% and 82%; normalised viability ([6]; 1 nM): 104% and 89.3%; normalised viability ([6]; 100 nM): 104% and 95.4%; normalised viability ([7]; 1 nM): 94.8% and 101%; normalised viability ([7]; 100 nM): 98.3% and 96.8%; drug sensitivity score [9]: 0; drug sensitivity score [13]: 0; drug sensitivity score [24]: 0; drug sensitivity score [25]: 0

Reference: the supplement of paper PMC4862054
